Tests used:
[1] = system: HT29, L929, A431, A253, CAL-27 and J774A.1 cell lines; assay: Cell test of photodynamic activity and light independent toxicity, XTT cell viability assay; assay type: cell-based, human, mouse; conditions: for activity against the cell lines under irradiation (phototoxicity): 2 or 10 μM photosensitizer, 24 h incubation, white light 50 J/cm^2, XTT after 24 h; for activity against the cell lines without light / toxicity against tumor cells in the absence of light: 2 or 10 μM; for activity against the cell lines without light: no irradiation (dark toxicity); for toxicity against tumor cells in the absence of light: no irradiation
Method: The photosensitizing activity was determined in the following cell lines: • HT29 (human colon adenocarcinoma cell line) • L929 (mouse fibroblast cell line) • A431 (human epidermoid carcinoma cell line) • A253 (submaxillary salivary gland, epidermoid cell line) • CAL-27 (human tongue squamous cell carcinoma cell line) • J774A.1 (Mouse BALB/c monocyte macrophage). The cell lines were grown in DMEM (PAA Laboratories GmbH) supplemented with 10% heat-inactivated fetal calf serum (FCS, PAA Laboratories GmbH), 1% penicillin (10000 IU) and streptomycin (10000 μg/ml, PAA Laboratories GmbH). Cells were kept as a monolayer culture in a humidified incubator (5% CO2 in air at 37° C.). A photosensitizer stock solution (2 mM) was performed in DMSO and was kept in the dark at 4° C. […] Cells were incubated with fresh medium (DMEM without phenol red) containing 10% FCS with 2 or 10 μM of the photosensitizer for 24 h before light exposure. Before photosensitization, cells were washed, cell culture medium was exchanged with DMEM without phenol red and 10% FCS, then irradiated at room temperature with white light source at a fixed fluence rate of about 100 mW/cm^2 (50 J/cm^2). Following irradiation, cells were incubated in a humidified incubator (5% CO2 in air at 37° C.) for 24 h until cell viability assay. […] Solution was stored in the dark at −20° C. until use. A sterile solution containing PMS ([…], Applichem GmbH) was needed as an activation reagent for the XTT. 0.383 mg PMS was dissolved in 1 ml PBS-Buffer. The solution should be stored frozen and should not be exposed to light. The XTT reagent solution was thawed in a 37° C. water bath and the activation solution (PMS) was added immediately prior to use. To prepare a reaction solution sufficient for one micro plate (96 wells), 0.1 ml activation solution (PMS) was given to 5 ml XTT reagent. The medium in the micro plate was exchanged with RPMI without phenol red and 10% FCS (100 μl) prior adding 50 μl XTT reaction solution per well. The micro plate was incubated for 2-3 hours at 37° C. and 5% CO2 until an orange dye was formed. The micro plate has been shaken gently to evenly distribute the dye in the wells. The absorbance of the samples was measured with a spectrophotometer (Infinite 200, Tecan Group Ltd.) at a wavelength of 490 nm.

[2] = system: Staphylococcus aureus DSM 11729; assay: Antibacterial testing, colony-forming units after incubation with or without white light; assay type: cell-based; conditions: 100, 10 or 1 μM; for activity against S. aureus under irradiation: 30 min incubation, white light about 100 J/cm^2, CFU/ml; for activity/toxicity against S. aureus without light: no illumination, CFU/ml
Method: (§1) The organisms studied were Staphylococcus aureus DSM 11729, Gram-positive; Acinetobacter baumannii DSM30007, and Klebsiella pneumoniae DSM30104, both Gram-negative. Cultures cells are suspended in sterile phosphate-buffered saline (PBS) or sterile PBS supplemented with 10% sterile horse blood serum. The bacterial suspensions are placed into sterile black well plates with clear bottoms. Concentrations of photosensitizer used in the study were as follows: 100 μM, 10 μM and 1 μM. After an incubation time period of 30 minutes, the samples are exposed to white light, with a power density and irradiation time resulting in an energy fluency of about 100 J/cm^2. Control plates contained no photosensitizer and are not exposed to laser light. The control samples for dark toxicity are only exposed to photosensitizer without any illumination. After irradiation, the samples are removed and suspended again in the culture media. The numbers of colony-forming units (CFU/ml) are enumerated after an adequate incubation time period.

[3] = system: Klebsiella pneumoniae DSM30104; assay: as above; assay type: cell-based; conditions: 100, 10 or 1 μM
Method: as §1

[4] = system: Staphylococcus aureus DSM 11729; Acinetobacter baumannii DSM30007; Klebsiella pneumoniae DSM30104; assay: Antibacterial testing, bacteria not specified; assay type: cell-based; conditions: PBS supplemented with 10% sterile horse blood serum
Method: as §1

Tris[5-(4-β-D-thiogalactosyl)-2,3,5,6-tetrafluorophenyl)dipyrrinato gallium(III) [Example 4.5]
activity against the cell lines under irradiation (phototoxicity) [1]: high activity
activity against the cell lines without light [1]: no activity
activity against S. aureus under irradiation [2]: high activity
activity/toxicity against S. aureus without light [2]: nearly no activity

Tris[5-(4-β-D-thioglucosyl)-2,3,5,6-tetrafluorophenyl)dipyrrinato gallium(III) [Example 4.3]
activity against the cell lines under irradiation (phototoxicity) [1]: high activity
activity against the cell lines without light [1]: no activity
activity against K. pneumoniae under irradiation ([3]; 30 min incubation, white light about 100 J/cm^2, CFU/ml): high activity
activity against K. pneumoniae without light ([3]; no illumination, CFU/ml): nearly no activity
activity against S. aureus under irradiation [2]: high activity
activity/toxicity against S. aureus without light [2]: nearly no activity
antibacterial activity in the presence of complex media (serum addition) [4]: antibacterial activity is also observed

[bis(2,2′-bipyridyl(4-(hexyloxy)-2,3,5,6-tetrafluorophenyl)-dipyrrinato)]ruthenium(II) chloride [Example 4.6]
toxicity against tumor cells in the absence of light [1]: high toxicity

[bis(2,2′-bipyridyl(4-(prop-2-enylamino)-2,3,5,6-tetrafluorophenyl)-dipyrrinato)]ruthenium(II) chloride [Example 4.7]
toxicity against tumor cells in the absence of light [1]: high toxicity
activity/toxicity against S. aureus without light [2]: high toxicity
antibacterial activity in the presence of complex media (serum addition) [4]: antibacterial activity is also observed

[bis(2,2′-bipyridyl(4-(prop-2-enyloxy)-2,3,5,6-tetrafluorophenyl)-dipyrrinato)]ruthenium(II) chloride [Example 4.8]
toxicity against tumor cells in the absence of light [1]: high toxicity
activity/toxicity against S. aureus without light [2]: high toxicity

From patent US10781227B2, “Application of metal complexes in anti-tumor and anti-bacterial therapy” (biolitec Unternehmensbeteiligungs II AG, priority 2018, dated 2020)
